Reference: patent US9023853B2, “Janus kinase 2 (JAK2) inhibitor for the treatment of lupus” (Cephalon, Inc., priority 2010, dated 2015)

Legend:
Type in all cases: in vivo, mouse
plasma cells [1] = test: Spleen plasma cells by flow cytometry in MRL/lpr mice; details: 100 mg/kg, p<0.01
Description: (§1) Antibodies used for flow cytometry consisted of anti-mouse CD138-APC (eBioscience, San Diego, Calif.), anti-mouse CD19-FITC (eBioscience, San Diego, Calif.), anti-mouse CD38-PE (eBioscience, San Diego, Calif.) and anti-mouse CD45R/B220-Cyc (eBioscience, San Diego, Calif.), Rat IgG1-APC isotype control (eBioscience, San Diego, Calif.), Rat IgG2a-PE isotype control (eBioscience, San Diego, Calif.). All samples were analyzed using an Accuri C6 Flow Cytometer. Complete media was used for all experiments involving the ex vivo culture of splenocytes for all Elispot experiments. Complete media consisted of RPMI1640 (Cellgro, Manassas, Va.), plus 1% Pen-Strep (Cellgro, Manassas, Va.), 1% L-Gln (Cellgro, Manassas, Va.), 1% NEAA (Cellgro, Manassas, Va.), β-ME (Cellgro, Manassas, Va.), plus 10% FBS (Cellgro, Manassas, Va.).
Washed, RBC-lysed splenocytes were stained for plasma cell markers as previously used in published reports (Neubert, Meister et al. 2008). As used herein the term “plasma cell” will refer to the following immunophenotype definition: Plasma cells were defined as live CD19-negative, CD45R/B220-negative, CD138-positive, CD38-positive events for the MRL/lpr model. A total of 200,000-500,000 events were collected per tube/sample. Insufficient sample limited plasma cell determination in bone marrow. […]

CD38 = CD38 expression by flow cytometry in NZM mice
Description: as §1, with “Complete media consisted of RPMI1640 (Cellgro, Manassas, Va.), plus 1% Pen-Strep (Cellgro, Manassas, Va.), 1% L-Gln (Cellgro, Manassas, Va.), 1% NEAA (Cellgro, Manassas, Va.), β-ME (Cellgro, Manassas, Va.), plus 10% FBS (Cellgro, Manassas, Va.).” left out
Age mated, female, NZM or NZW/LacJ, mice were matured for the study of lupus nephritis for a total of 7 months or 210 days at which time urine was collected for proteinuria detection. Mice with 0.5-1.0 mg/ml of urine protein as determined by an optical density-based total protein precipitation assay and cross-checked for 30-300 mg/dl of protein as determined by a stick assay were considered proteinuria positive and selected for study entry. […] End-stage lupus nephritis was evaluated by histopathology and scored by a board certified pathologist for the assessment of total renal damage in diseased animals using the scoring method described by Smith et al (Smith, Dong et al. 2007). […]

plasma cells [2] = test: BrdU short-lived / long-lived plasma cells in spleen and bone marrow of NZM mice; details: 15 week old NZM mice, two weeks
Description: Twenty-four hours before the end of the study each mouse was injected i.p. with 2 mg of thymidine analog, bromodeoxyuridine (BrdU). BrdU (Cat#550891) and an anti-BrdU-FITC staining kit (Cat#559619) were obtained from BD Biosciences (Franklin Lakes, N.J.). Twenty-four hours after BrdU injection spleen and bone marrow were individually processed to isolate leukocytes for flow staining. Cells were surface stained with anti-CD19-Cyc, anti-CD38-PE and anti-CD138-APC (all obtained from eBioscience in San Diego, Calif.) as well as anti-BrdU-FITC (from the BrdU kit). Analysis included gating on live SSC/FSC populations, CD19-negative, CD38-positive and gating on CD138-positive, BrdU-negative (non-cycling, long-lived plasma cells, region R2) or BrdU-positive (cycling, short-lived plasma cells, region R1) as shown in FIG. 42. All samples were analyzed using an Accuri C6 Flow Cytometer. Complete media (R10) was used for all experiments involving the ex vivo culture of splenocytes for all Elispot experiments. […] The Figures depict spleen short-lived plasma cells (FIG. 38), bone marrow isolated short-lived plasma cells (FIG. 39), spleen long-lived plasma cells (FIG. 40), and bone marrow isolated long-lived plasma cells (FIG. 41). Also depicted are representative dot plots providing gating examples and short-lived plasma cells, R1, and long-lived plasma cells, R2, gates (FIG. 42). Graphs show mean±SEM, statistical test included two-tailed, Mann-Whitney t-test, *p<0.05 was considered significant. All events shown were originally size gated on live cells, graphs show CD19-negative, CD38/CD138-double positive populations that had either incorporated BrdU (cycling, thus short-lived plasma cells, see region R1) or not incorporated BrdU (non-cycling, thus long-lived plasma cells, see region R2).

CN1CCN(c2cccc(Nc3nc4c(-c5ccc(S(C)(=O)=O)cc5)cccn4n3)c2)CC1 [COMPOUND A, [8-(4-methanesulfonyl-phenyl)-[1,2,4]triazolo[1,5-a]pyridin-2-yl]-[3-(4-methyl-piperazin-1-yl)-phenyl]-amine]
spleen plasma cells decrease vs vehicle (plasma cells [1]): 65.5% | decrease in expression of CD38 (CD38; COMPOUND A 55 mg/kg): 66.6% | decrease in expression of CD38 (CD38; COMPOUND A 100 mg/kg): 74.2% | short lived plasma cells in the bone marrow (plasma cells [2]; 100 mg/kg orally b.i.d., FIG. 39): impacted | long lived plasma cells in the bone marrow (plasma cells [2]; 100 mg/kg orally b.i.d., FIG. 41): impacted | long lived plasma cells in the spleen (plasma cells [2]; all three doses (100, 55, 30 mg/kg) orally b.i.d., FIG. 40): impacted
